Laboratory results taken from patent publication US12201745B2, “Vascular extracellular matrix hydrogel” (University of Pittsburgh—Of the Commonwealth System of …, priority 2016, dated 2025).

Assays:
[1] = system: Primary human adventitia-derived endothelial cells; experiment: Endothelial cell branching assay (tube-like structures on GFR-Matrigel); type: cell-based; settings: 100 nM
Procedure: FIGS. 13A-13C. Effect of ECM bioscaffolds on network formation of tube-like structures in vitro. FIG. 13A—Human adventitia-derived endothelial cells were cultured on growth factor reduced-Matrigel substrates: (A) DMSO, 0.05% (v/v), (B) Digestion buffer (1% (w/v) Pepsin in 0.1 N HCl), (C) pAdv ECM, and (D) pSIS ECM. FGF2 inhibitor PD173074 (100 nM) was added to the culture medium of above treatments shown in parallel wells (E-H). A-H: One representative 10× field is shown, selected from one of three replicates of two independent experiments. All scale bars=50 μm for (A-H). Quantification of the number (FIG. 13B) and total length (FIG. 13C) of tube-like structures from 5×5 stitched fields captured at 10× for non-ECM-supplemented (open bars), pAdv (solid bars) and pSIS (gray bars) ECM-supplemented substrates in the absence and presence of PD173074. Bars represent mean of three assay replicates ±standard deviation. Images and graphs represent data from one of two independent experiments. *Significant from pepsin HCl, p<0.02; #Significant from pAdv ECM-treated cells in the absence of PD173074, p<0.03.
Endothelial Cell Branching Assay. […] Total number and length of tube-like structures were quantified using NIS Elements Software.

[2] = system: chick chorioallantoic membrane (CAM); experiment: Chick chorioallantoic membrane (CAM) model of in vivo angiogenesis; settings: 100 nM PD173074 with 250 μg/mL pAdv ECM bioscaffold in fibrin scaffold
Procedure: FIGS. 14A-14D. Effect of ECM bioscaffolds on angiogenesis in vivo. FIG. 14A) Representative bright field images of scaffolds before (Time 0) and after (72 hr) incubation on the chorioallantoic membrane (CAM) of the chick embryo. […] There was no appreciable angiogenic response detected around scaffolds loaded with digestion buffer (1% (w/v) pepsin in 0.1 N HCl) or DMSO. Addition of the FGF2 inhibitor PD173074 (100 nM) abrogated the angiogenic response to pAdv ECM. […] All scale bars for FIG. 14A=5 mm. FIG. 14B) Representative histological cross-sections of CAM assay scaffolds. The CAM vasculature was visualized using injected tomato lectin-Dylight® 650 (red) and nuclei are labeled with Hoechst dye (blue). A dashed white line denotes the scaffold/CAM interface. […] The maximum tested dose of pAdv ECM (500 μg/mL) inhibited invasion of blood vessels into the scaffold. […] All scale bars in FIG. 14B and FIG. 14C=[…] *Avascular zone comprised of lectin-negative cells. FIG. 14D). […] (*) avascular zone comprised of lectin-negative cells. All scale bars for FIG. 14D=20 μm.
Chick Chorioallantoic Membrane (CAM) Model of In Vivo Angiogenesis. […]

CCN(CC)CCCCNc1ncc2cc(-c3cc(OC)cc(OC)c3)c(NC(=O)NC(C)(C)C)nc2n1 [PD173074]
effect on tube-like formation on non-ECM substrates ([1]; Matrigel alone or pepsin HCl-supplemented substrates): did not affect tube-like formation | effect on tube-like formation on ECM-supplemented substrates ([1]; pAdv and pSIS ECM bioscaffold-supplemented substrates vs absence of inhibitor): decreased the tube-like formation | effect on pAdv ECM bioscaffold-induced angiogenesis [2]: completely inhibited
